Test system: MV-4-11 cells
Assay: Gene expression microarray analysis (Affymetrix PrimeView) and GSEA
Type: cell-based, human
Design: RFU PODN (11730768_x_at) / Fold change /veh PODN (11730768_x_at) / RFU LINC00158 (11744669_a_at) / Fold change /veh LINC00158 (11744669_a_at) / RFU DUSP10 (11751237_a_at) / Fold change /veh DUSP10 (11751237_a_at) / RFU ID3 (11757404_x_at) / Fold change /veh ID3 (11757404_x_at) / RFU PLEKHG5 (11737974_s_at) / Fold change /veh PLEKHG5 (11737974_s_at) / RFU LRRC4B (11730491_at) / Fold change /veh LRRC4B (11730491_at) / RFU GIMAP4 (11747438_a_at) / Fold change /veh GIMAP4 (11747438_a_at) / RFU KRT8 (11758183_x_at) / Fold change /veh KRT8 (11758183_x_at) / RFU CNN1 (11734310_a_at) / Fold change /veh CNN1 (11734310_a_at) / RFU VPS37D (11726825_at) / Fold change /veh VPS37D (11726825_at) / RFU C10orf10 (11716522_x_at) / Fold change /veh C10orf10 (11716522_x_at) / RFU KIR2DL2 /// KIR2DL4 /// KIR2DL5A /// KIR2DL5B /// KIR2DS1 /// KIR2DS2 /// KIR2DS3 /// KIR2DS4 /// KIR3DL3 /// KIR3DL3 /// KIR3DS1 (11738374_at) / Fold change /veh KIR2DL2 /// KIR2DL4 /// KIR2DL5A /// KIR2DL5B /// KIR2DS1 /// KIR2DS2 /// KIR2DS3 /// KIR2DS4 /// KIR3DL3 /// KIR3DL3 /// KIR3DS1 (11738374_at) / RFU C1QL1 (11718748_at) / Fold change /veh C1QL1 (11718748_at) / RFU TMPRSS4 (11747572_a_at) / Fold change /veh TMPRSS4 (11747572_a_at) / RFU HAMP (11756126_x_at) / Fold change /veh HAMP (11756126_x_at) / RFU RNFT2 (11725882_a_at) / Fold change /veh RNFT2 (11725882_a_at) / RFU NR4A2 (11747474_a_at) / Fold change /veh NR4A2 (11747474_a_at) / RFU ABCC12 (11746883_a_at) / Fold change /veh ABCC12 (11746883_a_at) / RFU TMEM136 (11760407_x_at) / Fold change /veh TMEM136 (11760407_x_at) / RFU CLDN22 /// WWC2 (11732394_at) / Fold change /veh CLDN22 /// WWC2 (11732394_at) / RFU HLA-DPB1 (11760878_x_at) / Fold change /veh HLA-DPB1 (11760878_x_at) / RFU SPINT1 (11716480_a_at) / Fold change /veh SPINT1 (11716480_a_at) / RFU GAP43 (11754022_s_at) / Fold change /veh GAP43 (11754022_s_at) / RFU A4GNT (11735810_at) / Fold change /veh A4GNT (11735810_at) / RFU PRB3 (11715151_x_at) / Fold change /veh PRB3 (11715151_x_at) / RFU TUBB4B (11761932_at) / Fold change /veh TUBB4B (11761932_at) / RFU CAPN14 (11732068_a_at) / Fold change /veh CAPN14 (11732068_a_at) / RFU TMCC2 (11721928_a_at) / Fold change /veh TMCC2 (11721928_a_at) / RFU IRGQ (11745062_a_at) / Fold change /veh IRGQ (11745062_a_at) / RFU FAM174B (11720279_a_at) / Fold change /veh FAM174B (11720279_a_at) / RFU TMPRSS4 (11748680_a_at) / Fold change /veh TMPRSS4 (11748680_a_at) / RFU FAM212B (11763350_a_at) / Fold change /veh FAM212B (11763350_a_at) / RFU PLEKHG5 (11743358_a_at) / Fold change /veh PLEKHG5 (11743358_a_at) / RFU ZSCAN30 (11745921_a_at) / Fold change /veh ZSCAN30 (11745921_a_at) / RFU CMKLR1 (11741424_a_at) / Fold change /veh CMKLR1 (11741424_a_at) / RFU LOC101060620 /// MAPK8IP1 (11723275_at) / Fold change /veh LOC101060620 /// MAPK8IP1 (11723275_at) / RFU SPTSSB (11747773_x_at) / Fold change /veh SPTSSB (11747773_x_at) / RFU PRSS12 (11739890_at) / Fold change /veh PRSS12 (11739890_at) / RFU BIN1 (11741810_x_at) / Fold change /veh BIN1 (11741810_x_at) / RFU WNT11 (11732464_a_at) / Fold change /veh WNT11 (11732464_a_at) / RFU C10orf10 (11716521_a_at) / Fold change /veh C10orf10 (11716521_a_at) / RFU C5orf56 (11738089_at) / Fold change /veh C5orf56 (11738089_at) / RFU CYB561 (11721691_x_at) / Fold change /veh CYB561 (11721691_x_at) / RFU ANKRD19P (11752326_a_at) / Fold change /veh ANKRD19P (11752326_a_at) / RFU OR2T12 /// OR2T33 /// OR2T8 (11738714_s_at) / Fold change /veh OR2T12 /// OR2T33 /// OR2T8 (11738714_s_at) / RFU VCAN (11748164_a_at) / Fold change /veh VCAN (11748164_a_at) / RFU JSRP1 (11732532_at) / Fold change /veh JSRP1 (11732532_at) / RFU KRTAP10-11 (11738290_x_at) / Fold change /veh KRTAP10-11 (11738290_x_at) / RFU MYO3A (11730013_a_at) / Fold change /veh MYO3A (11730013_a_at) / RFU EBF3 (11725865_a_at) / Fold change /veh EBF3 (11725865_a_at) / RFU CAMK2N1 (11719241_x_at) / Fold change /veh CAMK2N1 (11719241_x_at) / RFU C5orf56 (11738088_a_at) / Fold change /veh C5orf56 (11738088_a_at) / RFU OLFML3 (11715873_a_at) / Fold change /veh OLFML3 (11715873_a_at) / RFU LOC100653217 /// NTM (11731650_a_at) / Fold change /veh LOC100653217 /// NTM (11731650_a_at) / RFU MAPK11 (11762145_a_at) / Fold change /veh MAPK11 (11762145_a_at) / RFU FIZ1 (11724087_x_at) / Fold change /veh FIZ1 (11724087_x_at) / RFU OASL (11726364_x_at) / Fold change /veh OASL (11726364_x_at) / RFU SOX15 (11748057_x_at) / Fold change /veh SOX15 (11748057_x_at) / RFU CD79A (11719716_a_at) / Fold change /veh CD79A (11719716_a_at) / RFU HIST1H1D (11736915_at) / Fold change /veh HIST1H1D (11736915_at) / RFU CASKIN2 (11723855_a_at) / Fold change /veh CASKIN2 (11723855_a_at) / RFU LOC730098 (11760151_x_at) / Fold change /veh LOC730098 (11760151_x_at) / RFU OR4N2 (11742367_at) / Fold change /veh OR4N2 (11742367_at) / RFU PRRT2 (11749266_a_at) / Fold change /veh PRRT2 (11749266_a_at) / RFU SNX32 (11753110_a_at) / Fold change /veh SNX32 (11753110_a_at) / RFU CDHR5 (11726645_a_at) / Fold change /veh CDHR5 (11726645_a_at) / RFU RCAN1 (11760418_a_at) / Fold change /veh RCAN1 (11760418_a_at) / RFU FAM167A (11723789_a_at) / Fold change /veh FAM167A (11723789_a_at) / RFU FAM26E (11764081_at) / Fold change /veh FAM26E (11764081_at) / RFU ISYNA1 (11749810_s_at) / Fold change /veh ISYNA1 (11749810_s_at) / RFU ACY1 (11761880_at) / Fold change /veh ACY1 (11761880_at) / RFU 11764098_at / Fold change /veh 11764098_at / RFU SAMD14 (11745864_x_at) / Fold change /veh SAMD14 (11745864_x_at) / RFU NPB (11741838_a_at) / Fold change /veh NPB (11741838_a_at) / RFU TMPRSS6 (11731388_a_at) / Fold change /veh TMPRSS6 (11731388_a_at) / RFU KRTAP10-2 (11738614_at) / Fold change /veh KRTAP10-2 (11738614_at) / RFU ARHGAP8 /// PRR5-ARHGAP8 (11727945_x_at) / Fold change /veh ARHGAP8 /// PRR5-ARHGAP8 (11727945_x_at) / RFU KRTAP5-7 /// NADSYN1 (11734609_at) / Fold change /veh KRTAP5-7 /// NADSYN1 (11734609_at) / RFU RASL12 (11751679_a_at) / Fold change /veh RASL12 (11751679_a_at) / RFU CDKN2B (11736163_a_at) / Fold change /veh CDKN2B (11736163_a_at) / RFU PRF1 (11729649_at) / Fold change /veh PRF1 (11729649_at) / RFU, ZNF638 /// ZNF638-IT1 / Fold change vs veh, ZNF638 /// ZNF638-IT1 / RFU, PANK3 / Fold change vs veh, PANK3 / RFU, SH3YL1 / Fold change vs veh, SH3YL1 / RFU, ZEB2 / Fold change vs veh, ZEB2 / RFU, NRIP1 / Fold change vs veh, NRIP1 / RFU, PTTG1IP / Fold change vs veh, PTTG1IP / RFU, CAPN2 / Fold change vs veh, CAPN2 / RFU, MED14 / Fold change vs veh, MED14 / RFU, SNORA58 / Fold change vs veh, SNORA58 / RFU, C1orf63 / Fold change vs veh, C1orf63 / RFU, LRRFIP1 / Fold change vs veh, LRRFIP1 / RFU, NDUFAF7 / Fold change vs veh, NDUFAF7 / RFU, SLC12A2 / Fold change vs veh, SLC12A2 / RFU, IBTK / Fold change vs veh, IBTK / RFU, ESF1 / Fold change vs veh, ESF1 / Fold change vs veh, TMEM50B / RFU, TAOK1 / Fold change vs veh, TAOK1 / RFU, ACBD3 / Fold change vs veh, ACBD3 / RFU, TMA16 / Fold change vs veh, TMA16 / RFU, RWDD3 / Fold change vs veh, RWDD3 / RFU, BCAT1 / Fold change vs veh, BCAT1 / RFU, EDEM3 / Fold change vs veh, EDEM3 / RFU, TMEM33 / Fold change vs veh, TMEM33 / RFU, WDR75 / Fold change vs veh, WDR75 / RFU, AHCTF1 / Fold change vs veh, AHCTF1 / RFU, TFRC / Fold change vs veh, TFRC / RFU, ZDHHC17 / Fold change vs veh, ZDHHC17 / RFU, NOM1 / Fold change vs veh, NOM1 / RFU, ARL8B / Fold change vs veh, ARL8B / RFU, ZBTB11 / Fold change vs veh, ZBTB11 / RFU, TAMM41 / Fold change vs veh, TAMM41 / RFU, KIAA1704 /// LOC100996395 / Fold change vs veh, KIAA1704 /// LOC100996395 / RFU, ING1 / Fold change vs veh, ING1 / RFU, TRMT61B / Fold change vs veh, TRMT61B / RFU, FUBP3 / Fold change vs veh, FUBP3 / RFU, TP53 / Fold change vs veh, TP53 / RFU, TNKS2 / Fold change vs veh, TNKS2 / RFU, ZFP14 / Fold change vs veh, ZFP14 / RFU, ACTR2 / Fold change vs veh, ACTR2 / RFU, PPP3R1 / Fold change vs veh, PPP3R1 / RFU, PIK3R1 / Fold change vs veh, PIK3R1 / RFU, HNRNPA1 / Fold change vs veh, HNRNPA1 / RFU, RNF170 / Fold change vs veh, RNF170 / RFU, ZNF28 / Fold change vs veh, ZNF28 / RFU, RNGTT / Fold change vs veh, RNGTT / RFU, OGT / Fold change vs veh, OGT / RFU, BRD1 / Fold change vs veh, BRD1 / RFU, MARS / Fold change vs veh, MARS / RFU, ZNF655 / Fold change vs veh, ZNF655 / RFU, FAHD1 / Fold change vs veh, FAHD1 / RFU, BDP1 / Fold change vs veh, BDP1 / RFU, LRRCC1 / Fold change vs veh, LRRCC1 / RFU, ARID1A / Fold change vs veh, ARID1A / RFU, ZNF146 / Fold change vs veh, ZNF146 / RFU, ZNF330 / Fold change vs veh, ZNF330 / RFU, GPN3 / Fold change vs veh, GPN3 / RFU, C9orf123 / Fold change vs veh, C9orf123 / RFU, N4BP2L2 / Fold change vs veh, N4BP2L2 / RFU, ARFIP1 / Fold change vs veh, ARFIP1 / RFU, FAM179B / Fold change vs veh, FAM179B / RFU, BCL10 / Fold change vs veh, BCL10 / RFU, UHRF1BP1L / Fold change vs veh, UHRF1BP1L / RFU, BET1 / Fold change vs veh, BET1 / RFU, CNOT2 / Fold change vs veh, CNOT2 / RFU, ZNF268 / Fold change vs veh, ZNF268 / Fold change vs veh, ZNF507 / RFU, DGCR2 / Fold change vs veh, DGCR2 / RFU, WDSUB1 / Fold change vs veh, WDSUB1 / Fold change vs veh, HSP90B1 /// MIR3652 / RFU, ADSS / Fold change vs veh, ADSS / RFU, GK / Fold change vs veh, GK / RFU, ZNF148 / Fold change vs veh, ZNF148 / RFU, TAF9 / Fold change vs veh, TAF9 / RFU, SLC1A5 / Fold change vs veh, SLC1A5 / RFU, SLMO2 / Fold change vs veh, SLMO2 / RFU, ABCC4 / Fold change vs veh, ABCC4 / RFU, LOC101060439 /// RAP1B / Fold change vs veh, LOC101060439 /// RAP1B / RFU, RFX7 / Fold change vs veh, RFX7 / RFU, GTPBP10 / Fold change vs veh, GTPBP10 / RFU, CNEP1R1 / Fold change vs veh, CNEP1R1 / RFU, BIVM-ERCC5 /// ERCC5 / Fold change vs veh, BIVM-ERCC5 /// ERCC5 / RFU, ILF3 / Fold change vs veh, ILF3 / RFU 11762660_at / Fold change /veh 11762660_at / RFU VCAN (11757783_s_at) / Fold change /veh VCAN (11757783_s_at) / RFU DDX43 (11728927_at) / Fold change /veh DDX43 (11728927_at) / RFU KRT8 (11758188_x_at) / Fold change /veh KRT8 (11758188_x_at) / RFU NKD1 (11759106_at) / Fold change /veh NKD1 (11759106_at) / RFU SRD5A1 (11742802_a_at) / Fold change /veh SRD5A1 (11742802_a_at) / RFU TPSAB1 /// TPSB2 (11721975_s_at) / Fold change /veh TPSAB1 /// TPSB2 (11721975_s_at) / RFU GSTM3 (11746129_a_at) / Fold change /veh GSTM3 (11746129_a_at) / RFU IL23R (11737362_x_at) / Fold change /veh IL23R (11737362_x_at) / RFU TMEM51 (11727254_a_at) / Fold change /veh TMEM51 (11727254_a_at) / RFU PIWIL2 (11732686_x_at) / Fold change /veh PIWIL2 (11732686_x_at) / RFU ORM1 (11744905_x_at) / Fold change /veh ORM1 (11744905_x_at) / RFU CCDC152 (11743942_at) / Fold change /veh CCDC152 (11743942_at) / RFU ECM1 (11717891_a_at) / Fold change /veh ECM1 (11717891_a_at) / RFU IL23R (11748794_a_at) / Fold change /veh IL23R (11748794_a_at) / RFU TNFAIP8L3 (11732012_x_at) / Fold change /veh TNFAIP8L3 (11732012_x_at) / RFU MBOAT4 (11741988_at) / Fold change /veh MBOAT4 (11741988_at) / RFU 11764193_at / Fold change /veh 11764193_at / RFU TMEM53 (11763286_at) / Fold change /veh TMEM53 (11763286_at) / RFU MAGEB2 (11727129_at) / Fold change /veh MAGEB2 (11727129_at) / RFU TMEM200A (11744735_a_at) / Fold change /veh TMEM200A (11744735_a_at) / RFU CCDC152 (11751479_a_at) / Fold change /veh CCDC152 (11751479_a_at) / RFU FAM211A (11726209_a_at) / Fold change /veh FAM211A (11726209_a_at) / RFU RGS16 (11746705_a_at) / Fold change /veh RGS16 (11746705_a_at) / RFU VCAN (11755009_s_at) / Fold change /veh VCAN (11755009_s_at) / RFU RHOB (11743442_s_at) / Fold change /veh RHOB (11743442_s_at) / RFU RGS16 (11720943_a_at) / Fold change /veh RGS16 (11720943_a_at) / RFU RGS16 (11720944_at) / Fold change /veh RGS16 (11720944_at) / RFU, VPS4B / Fold change vs veh, VPS4B / RFU, CREB1 / Fold change vs veh, CREB1 / RFU, DNAJC13 / Fold change vs veh, DNAJC13 / RFU, GNAQ / Fold change vs veh, GNAQ / RFU, CDK5R1 / Fold change vs veh, CDK5R1 / RFU, ZRANB3 / Fold change vs veh, ZRANB3 / RFU, CUL4A / Fold change vs veh, CUL4A / RFU, CCNY / Fold change vs veh, CCNY / RFU, UFL1 / Fold change vs veh, UFL1 / RFU, COG3 / Fold change vs veh, COG3 / RFU, DIAPH2 / Fold change vs veh, DIAPH2 / RFU, SKA2 / Fold change vs veh, SKA2 / RFU, AFF3 / Fold change vs veh, AFF3 / RFU, LMF1 / Fold change vs veh, LMF1 / RFU, IPO11 / Fold change vs veh, IPO11 / RFU, DFFB / Fold change vs veh, DFFB / RFU, FOXP1 / Fold change vs veh, FOXP1 / RFU, CARD8 / Fold change vs veh, CARD8 / RFU, STRN3 / Fold change vs veh, STRN3 / RFU, ADK / Fold change vs veh, ADK / RFU, RASSF2 / Fold change vs veh, RASSF2 / RFU, WIPF1 / Fold change vs veh, WIPF1 / RFU, LARP1B / Fold change vs veh, LARP1B / RFU, RASA1 / Fold change vs veh, RASA1 / RFU, RB1 / Fold change vs veh, RB1 / RFU, PPFIA1 / Fold change vs veh, PPFIA1 / RFU, MAT2A / Fold change vs veh, MAT2A / RFU, CCT5 / Fold change vs veh, CCT5 / RFU, WDR92 / Fold change vs veh, WDR92 / RFU, CUX1 / Fold change vs veh, CUX1 / RFU, TTC7A / Fold change vs veh, TTC7A / RFU, TMEM135 / Fold change vs veh, TMEM135 / RFU, DEPTOR / Fold change vs veh, DEPTOR / RFU, CPM / Fold change vs veh, CPM / RFU, DNAJB6 / Fold change vs veh, DNAJB6 / RFU, CACNA2D3 / Fold change vs veh, CACNA2D3 / RFU, DTX4 / Fold change vs veh, DTX4 / RFU, TFCP2 / Fold change vs veh, TFCP2 / RFU, GMCL1 /// GMCL1P1 / Fold change vs veh, GMCL1 /// GMCL1P1 / RFU, AEBP2 / Fold change vs veh, AEBP2 / RFU, SNHG1 /// SNORD22 /// SNORD25 /// SNORD26 /// SNORD27 /// SNORD28 /// SNORD29 /// SNORD31 / Fold change vs veh, SNHG1 /// SNORD22 /// SNORD25 /// SNORD26 /// SNORD27 /// SNORD28 /// SNORD29 /// SNORD31 / Fold change (Aza/veh), C12orf56 (ProbeSet 11735607_a_at) / Fold change (ACY-1035/veh), C12orf56 (ProbeSet 11735607_a_at) / Fold change (Aza/veh), FGFR1OP (ProbeSet 11751329_s_at) / Fold change (ACY-1035/veh), FGFR1OP (ProbeSet 11751329_s_at) / Fold change (Aza/veh), VPS36 (ProbeSet 11739960_a_at) / Fold change (ACY-1035/veh), VPS36 (ProbeSet 11739960_a_at) / RFU SYPL1 (11715823_x_at) / Fold change /veh SYPL1 (11715823_x_at) / RFU IGFBP7 (11715501_s_at) / Fold change /veh IGFBP7 (11715501_s_at) / RFU REEP3 (11722064_at) / Fold change /veh REEP3 (11722064_at) / RFU IGLL1 (11728026_x_at) / Fold change /veh IGLL1 (11728026_x_at): dose or concentration left out as unconfirmed
Settings: MV-4-11 cells, 48 hours

In the case of `Nc1ccc(-c2cccs2)cc1NC(=O)c1ccc2c(c1)cc(C1CC1)n2CCN1CCOCC1` [ACY-1035], the “RFU CLDN22 /// WWC2 (11732394_at)” value is reported as 8.03 RFU.

— PMC5218480 (PLoS ONE, 2017)
